The test system of test [1] is neonatal skin fibroblasts (CCD-27SK). Nature of the test: Preservation/protection of neonatal skin fibroblasts under starvation conditions, neutral red uptake assay. The class given is cell-based, human. As to conditions: for Variation of viability (stressed cells treated with compound 6 vs stressed cells): 17 mM; for OD 540 nm - mean value (cell viability): starvation medium + 17 mM. As to the method: The neonatal skin fibroblasts (Cell line: CCD-27SK. ATCC number CRL-1475) were grown with DMEM medium supplemented with Fetal Bovine Serum 10% final, antibiotics (Penicillin/Streptomycin) 1% final and Amphotericin B 0.1% final. Fibroblasts were grown in 75 cm^2 culture flask to 80% confluence in 37° C. and 10% CO2 incubator. The medium was changed every two days by 37° C. preheated fresh medium.
This medium was composed of 45% subculturing medium without Fetal Bovine Serum mixed with 55% of Phosphate Buffer Saline IX containing EDTA (final concentration of 0.45 mM). This was referred to as serum-free medium or starvation medium.
Compound 6 (MM=356.3 g/mol) was diluted in starvation medium to 17 mM final and pH was adjusted at 7.4 by addition of NaOH 1N.
Fibroblast cells were concentrated to 2.10^5 cells/ml and 100 μl of cell suspension was added in wells of a 96-well plate and incubated in 37° C. and 10% CO2 incubator for 4 hours.
After cell adhesion the medium was changed and plates were incubated (37° C.-10% CO2) to perform the assay as follows: • One plate for each sampling times: D0, D4, D7 days; • Three wells for each condition (triplicate count) added with 120 μl of culture medium (surviving control), starvation medium (serum-free control) or compound 6 solution at 17 mM.
The neutral red uptake assay was used for the determination of cell viability. This assay is based on the ability of viable cells to incorporate and bind the supravital dye neutral red in its lysosomes. Thus, only the viable cells are dyed. At D4 and D7, the plates were incubated with neutral red solution for 3.5 hours. The cells are subsequently washed, the dye is extracted in each well and the absorbance is read using a spectrophotometer.
For sampling, 1 mL of DMEM (without phenol red indicator) with neutral red (OD=0.110) was added to the cells for 3.5 hours (37° C. 10% CO2). After incubation. the medium was removed. Two washes with PBS were realized and 1 mL of extraction solution (absolute ethanol 49%, ultrapure water 49%, glacial acetic acid 2%) was added. Plates were placed 15 minutes on rotary shaker in the dark before reading OD at 540 nm.
The OD540 nm average values were compared and the variation of viability was calculated as follows:
Variation of viability at Dx=(OD540 nm of tested solution−blank) at Dx/(OD540 nm of stress control−blank) at Dx.

In the next test the test system is human preadipocytes. The test is described as follows: Total lipid accumulation (AdipoRed staining) in preadipocytes/adipocytes in inflammatory condition. The class given is cell-based. Conditions: for Total Lipid Accumulation (Adipored staining), Mean / Total Lipid Accumulation (Adipored staining), Values: end of the culture; for Total Lipid Accumulation (Adipored staining), Values: individual values. The procedure:
Preadipocytes have been isolated from human female hypodermis (body mass index <30 kg/m2 and <45 years old). Preadipocytes have been cultured for 24 h in 100 μl of DMEM-10% Fetal Bovine Serum (FBS) in 96-well plates. Then cells were treated to induce their differentiation in a classical or an inflammatory environment for 13 days.
To induce the preadipocytes differentiation cells were incubated in a proadipogenic cocktail (PAC) including insulin, glucocorticoid, 3-isobutyl-1-methylxanthine (IBMX), and thiazolinedione in DMEM.
To induce a fibro-inflammatory environment, cells were treated with an activated human macrophage-conditioned medium (AcMC) prepared in RPMI medium. A treatment with Dexamethasone (DXM) at 100 nM was used as anti-inflammatory response control. At D0: preadipocytes have been treated in the following conditions: • “Undifferentiation”: DMEM+¼ RPMI medium • “Differentiation”: PAC+¼ RPMI medium • “AcMC” i.e. inflammatory condition: PAC+¼ AcMC • “AcMC+DXM”: PAC+[…] AcMC+anti-inflammatory DXM at 100 nM • “AcMc+compounds”: PAC+14 AcMC+compounds to be tested
All conditions have been performed in triplicate. The medium has been changed every 2 days for 13 days.
After 14 days of culture, preadipocytes have been fixed with 4% paraformaldehyde and then stained by AdipoRed™ at room temperature to reveal the intracellular lipid droplets. Quantification of lipid accumulation has been performed by fluorescence intensity measurements using the spectrophotometer Spark (TECAN).
Lipid accumulation and Lipid index were evaluated for each condition. Data are represented in percentage of proinflammatory control condition (AcMC condition).

The test system of another test is procollagen I. The test is described as follows: Procollagen I secretion in coculture of human aged fibroblasts and mature adipocytes (ELISA). The format is cell-based. Conditions: for secretion of Procollagen I, normalized by fibroblasts number, in percentage of the coculture control condition, Values: individual replicates. From the text:
In order to evaluate its effect on fibroblast matrix and its anti-inflammatory properties, the effect of compound 6 has been tested on an adipocytes-aged fibroblasts coculture model, mimicking the interactions between dermis and hypodermis in the skin and allowed to explore in parallel the biological effects of the products on two cellular targets.
• Experimental model: co-culture of human mature adipocytes cultured in 3D and human dermal fibroblasts cultured in 2D (AM3D-FB2D co-culture). This experimental model of AM3D-FB2D co-culture mimicked the interactions between dermis and hypodermis in the skin and allowed to explore in parallel the biological effects of the products on two cellular targets. • Donor characteristics: This study was performed on mature adipocytes and fibroblasts from two different donors (one donor for mature adipocytes and another donor for dermal fibroblasts). • Fibroblasts donor=person, BMI=28 kg/m^2 • Adipocytes donor=person, BMI=21.4 kg/m^2 • Treatment procedure: compound 6 was added to the co-culture medium daily for up to 6 days
Dermal fibroblasts were seeded in DMEM 10% FBS at 10000 cells/well. The day after, the adipocytes capsules of 50 μl were added in suspension above the fibroblasts and the medium was changed and replaced by a specific culture medium for the co-culture AM3D-FB2D. The formation of adipocytes capsules followed an internal standardized protocol. Briefly, the fully mature adipocytes were isolated from the hypodermis after digestion by collagenase. The isolated adipocytes were then washed with a wash buffer and encapsulated in a peptidic hydrogel to form 3D adipocytes capsules of 50 μl in size. Cells were incubated at 37° C. and 5% CO2 overnight for stabilization. Treatments were initiated at DO with a medium change at DO, D2, D3 and D5. The entire culture media of 24 h incubation was collected at D3 and D6, before being centrifugated and stored at −80° C. Each culture condition was done in triplicate.
The biochemical analyses on culture media were performed via ELISA using specific kits according to the manufacturer's recommendations: IL-6 (Duoset DY206, R&D Systems), and Hyaluronic Acid (HA) (Duoset, DY3614-05, R&D Systems and Procollagen I (Duoset, DY6220-05, R&D Systems) The results of HA and Procollagen I were normalized by fibroblasts cell number regarding the fact that these molecules were secreted mainly by fibroblasts. All the biochemical results were represented in percentage of the control condition.
To evaluate the effect of the compound 6 on fibroblasts' matrix, the extracellular concentrations of Procollagen I, that is secreted only by the fibroblasts, were measured at D3 and D6.

Several values for one entry are separate records, joined by “and”; a condition that tells them apart may be missing. Equal values may be shown once.

As to `N[C@H]1CCCN(CC(F)(F)[C@]2(O)O[C@H](CO)[C@H](O)[C@H](O)[C@H]2O)C1=O` [Compound 6], the “Variation of viability (stressed cells treated with compound 6 vs stressed cells)” value in test [1] (D 4) was 2.3 and 2.32; in test [1] (D 7), 3.4 and 3.39. The “OD 540 nm - mean value (cell viability)” value in test [1] (D 4) came out at 0.274; in test [1] (D 7), 0.224. Moreover, the “Total Lipid Accumulation (Adipored staining), Mean” value in the test on human preadipocytes (AcMC + 1 mg/ml) is on record as 126.8 % of AcMC condition; with human preadipocytes (AcMC + 2 mg/ml) it was 137.0 % of AcMC condition. Further, the “Total Lipid Accumulation (Adipored staining), Values” in the test with human preadipocytes (AcMC + 1 mg/ml) was 130.3 % of AcMC condition and 123.6 % of AcMC condition and 126.5 % of AcMC condition; in the test on human preadipocytes (AcMC + 2 mg/ml), 137.2 % of AcMC condition and 132.3 % of AcMC condition and 141.4 % of AcMC condition. In addition, the “Total lipid synthesis (lipid accumulation) in the inflammatory media” value in the test with human preadipocytes (both concentration) is “increase lipid synthesis”. The “secretion of Procollagen I, normalized by fibroblasts number, in percentage of the coculture control condition, Mean” value in the test with procollagen I (D3, 1 mg/ml) stood at 163%; with procollagen I (D3, 2 mg/ml) it was 159%; with procollagen I (D3, 3 mg/ml) it was 173%; in the test with procollagen I (D6, 1 mg/ml) it was 418%; in the test with procollagen I (D6, 2 mg/ml) it was 411%; in the test on procollagen I (D6, 3 mg/ml), 474%. Moreover, the “secretion of Procollagen I, normalized by fibroblasts number, in percentage of the coculture control condition, Values” with procollagen I (D3, 1 mg/ml) was 162% and 158% and 168%; in the test on procollagen I (D3, 2 mg/ml), 177% and 144% and 157%; with procollagen I (D3, 3 mg/ml) it was 202% and 78% and 238%; with procollagen I (D6, 1 mg/ml) it was 312% and 472% and 469%; with procollagen I (D6, 2 mg/ml) it was 284% and 488% and 460%; with procollagen I (D6, 3 mg/ml), 515% and 398% and 508%.

The record behind these values is patent US20240124510A1, “Cyclic Glycoaminoacid Derivatives” (TFCHEM, priority 2021, published 2024).
